We go through 13 compounds from PubChem BioAssay (NCI).

SMILES strings stand for the structures. Values joined by “and” are separate entries in the source; they are usually repeats but may differ in a detail not shown here. Equal entries are not always repeated.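 These data come from cells grown in 96-well plates and exposed to compound for 48 hours at five concentrations. At the GI50, growth is halved. Definition used: TGI = concentration required for complete inhibition of growth.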 Where a SMILES comes first, the peptide text is derived from it. Bridges are numbered along the chain shown (N, C = ends).

Holding throughout (test): NCI-60 cell line screen, 48 h
The subject of assay [1] is OVCAR-4 ovarian.
Assay [2] relates to SNB-19 CNS.
Assay [3] has as its system CAKI-1 renal.
Assay [4] deals with HS 578T breast.
Assay [5] has as its system NCI/ADR-RES ovarian.
In assay [6] the test system is SNB-75 CNS.
Assay [7] concerns NCI-H460 lung.
Assay [8] concerns ACHN renal.
The test system of assay [9] is OVCAR-3 ovarian.
The subject of assay [10] is HOP-62 NSCLC.

With `COc1ccc(-c2c(/C=N/OCC(=O)O)c3sc4ccccc4n3c2/C=N/OCC(=O)O)cc1`, the TGI in assay [1], in assay [2], in [3], in assay [4], in [5] and in [6] was over 50 µM each time. Also, the TGI in assay [7], in [8], in [9] and in [10] was over 50 µM throughout.

For `COc1ccc(Cn2c(=O)c(OS(=O)(=O)C(F)(F)F)c(C)c3cc4ccccc4cc32)cc1`, the TGI in assay [1], in assay [2], in assay [3], in assay [4], in [5] and in assay [6] was over 100 µM in each case. Also, the TGI in assay [7], in assay [8], in assay [9] and in [10] was over 100 µM in each case.

Take `O=S1(=O)N=C(SCc2c[nH]c3ccccc23)N(c2ccccc2)c2ccncc21`: the TGI in assay [1] was over 100 µM; in [2] it was over 100 µM; in assay [3], over 100 µM; in [4], over 100 µM; in assay [5] it was over 100 µM; in assay [6], 87.7 µM. Moreover, the TGI in assay [7], in assay [8], in assay [9] and in assay [10] was over 100 µM in each case.

On to `CC12CC(c3ccccc3O1)C(C(=O)Nc1nccs1)C(=O)N2` (configuration not stated), for which the TGI in assay [1], in assay [2], in [3], in assay [4], in assay [5] and in assay [6] was over 100 µM each time. Moreover, the TGI in assay [7], in assay [8], in assay [9] and in [10] was over 100 µM each time.

As to `Cc1noc(-c2ccc(C(=O)O)[nH]2)c1Br`, the TGI in assay [1], in assay [2], in assay [3], in assay [4], in assay [5] and in assay [6] was over 100 µM each time. Besides, the TGI in [7] is over 100 µM; in assay [8], over 100 µM; in [9], over 100 µM; in assay [10], 77.3 µM.

For the compound `COc1ccc(N=C(C)C(C)=Nc2ccc(OC)cc2)cc1`, the TGI in assay [1], in assay [2], in assay [3], in assay [4], in [5] and in [6] was over 100 µM throughout. The TGI in [7], in assay [8], in [9] and in assay [10] was over 100 µM in each case.

Consider `CC(=O)N1CCOC12N=NC(C)(C)O2` (configuration not stated), for which the TGI in assay [1], in assay [2], in assay [3], in [4], in assay [5] and in assay [6] was over 100 µM in each case. The TGI in assay [7], in assay [8], in assay [9] and in assay [10] was over 100 µM in each case.

Take `Cc1cc(C)c(S(=O)(=O)N(CCCCCN)OCCCN)c(C)c1`: the TGI came to 37.8 µM in assay [1]; 37.6 µM in [2]; 31.2 µM in [3]; 40 µM in assay [4]; 34.3 µM in assay [5]; 30.9 µM in [6]. The TGI in [7] worked out at 31.2 µM; in [8], 33.6 µM; in assay [9] it was 36.2 µM; in assay [10] it was 32.3 µM.

Regarding `Nc1ccnc2c1ncn2[C@H]1C[C@H](O)[C@@H](CO)O1`, the TGI in assay [1], in assay [2], in assay [3], in assay [4], in assay [5] and in assay [6] was over 100 µM each time. Also, the TGI in assay [7], in assay [8], in assay [9] and in [10] was over 100 µM each time.

Take `COC(=O)C1CCC(=O)NCCCCC(NC(=O)C(N)CC(=O)O)C(=O)N1` (stereo not drawn) (H-Asp-Lys-Glu-OMe; lactam 2-3; configuration not given here): the TGI in [1], in assay [2], in assay [3], in [4], in assay [5] and in assay [6] was over 100 µM throughout. Besides, the TGI in assay [7], in assay [8], in assay [9] and in [10] was over 100 µM in each case.

As to `COc1ccc(C2C3=C(COC3=O)Oc3cc4c(cc32)OCO4)cc1OC` (configuration not stated), the TGI was over 100 µM in [1]; over 100 µM in [2]; over 100 µM in assay [3]; 6.14 µM in assay [4]; 7.7 µM in assay [5]; over 100 µM in [6]. The TGI in assay [7] is over 100 µM; in assay [8], over 100 µM; in assay [9], 6.05 µM; in [10], over 96.9 µM.

`CCOC(=O)/C=C(/C(=O)OCC)n1cc(C)c(=O)n(Cc2cn(CCCCOC(C)=O)nn2)c1=O`: the TGI in [1] was found to be 39.5 µM; in assay [2], 41.9 µM; in [3], 6.46 µM; in [4], 59 µM; in assay [5] it was 65.6 µM; in assay [6], 32.6 µM. The TGI is 34.1 µM in [7], 16.7 µM in assay [8], 33.4 µM in [9] and over 100 µM in assay [10].

In the case of `CCN(CC)CC[n+]1ccc2c(C)c3[nH]c4ccccc4c3c(C)c2c1`, the GI50 was 192 nM and 799 nM and 86.5 nM in [1]; 251 nM in assay [2]; 8.97 µM in assay [3]; 27.2 µM and 43.6 µM and 87.6 µM in assay [5]; 148 nM in assay [6]; 332 nM in assay [7]. The GI50 in assay [9] is 934 nM. In addition, the TGI in assay [1] was 1.2 µM and 4.27 µM and 0.483 µM; in assay [2], 1.41 µM and 1.48 µM and 1.33 µM; in assay [3] it was 10.3 µM and > 38.3 µM and 7.08 µM; in assay [4], 0.933 µM; in assay [5] it was 48.1 µM and 125 µM; in assay [6], 1.14 µM and 0.847 µM and 1.23 µM. For the same compound, the TGI was 2.31 µM and 2.16 µM and 1.01 µM in assay [7]; 32.8 µM in assay [8]; 2.02 µM and 4.55 µM and 2.07 µM in assay [9]; 3.46 µM and 7.99 µM and 4.74 µM in [10].
